According to publication PMC11431137, “[^68Ga]Ga-DOTAGA-Glu(FAPi)2 Shows Enhanced Tumor Uptake and Theranostic Potential in Preclinical PET Imaging” (Diagnostics, 2024):
Values joined by “and” are separate entries in the source; they are usually repeats but may differ in a detail not shown here. Identical values can stand only once.

Experiments:
[1] = system: endogenously FAP-expressing xenografted mouse model, U87MG; assay: In vivo PET/CT imaging, organ distribution in U87MG xenografted mice
Excerpt: Six-week-old female NMRI nude mice were purchased (Janvier, Le Genest-Saint-Isle, France) and housed in groups of 4–8 mice in individually ventilated cages under regular lighting conditions. They were fed a standard pathogen-free pellet diet and provided water ad libitum. All animal experiments were approved by The Animal Experiments Inspectorate in Denmark (2021-15-0201-01041). The animals were acclimatized for two weeks before study initiation.
To establish a tumor model, the mice were subcutaneously inoculated on the right flank with a human xenograft glioblastoma U87MG (HTB-14, ATCC, Manassas, VA, USA). These cells were cultivated in Dulbecco’s modified Eagle’s medium (DMEM) supplemented with fetal bovine serum (FBS) and penicillin–streptomycin (Pen/Strep). Tumor growth was monitored two times weekly using calipers.
After adequate tumor establishment, the animals were injected intravenously in the tail vein with 4.49 ± 0.04 MBq [^68Ga]Ga-DOTAGA-Glu(FAPi)2 in a 100 μL phosphate buffer (0.1 M, pH 7) with 1% ethanol (v/v). PET/CT imaging (Inveon, Siemens Healthineers, Knoxville, TN, USA) was performed immediately after injection, and PET data were acquired for 3000 s. The imaging protocol included a dynamic framing setup, with five consecutive frames of 600 s each, resulting in average time intervals of 0–10, 10–20, 20–30, 30–40, and 40–50 min post-injection. During imaging, body temperature was maintained using a heated platform.
PET images were reconstructed using the 3D-OSEM/SP-MAP algorithm, and attenuation correction was performed using the co-registered CT images. The activity concentration was decay-corrected to the time of injection and quantified using Inveon Research Workplace (IRW). Regions of interest were manually drawn on CT images to delineate organs and derive volume and activity. Subsequently, the percentage of injected dose per gram (% ID/g) was calculated for tumor, blood, liver, kidney, and muscle tissues for each frame.
All graphical representations of the data were generated using Prism version 10.1.0 (1994–2023, GraphPad Software, LLC, Boston, MA, USA). The results were expressed as the mean ± standard error of the mean (SEM).

[2] = logD7.4, shake flask method with n-octanol and phosphate-buffered saline (pH 7.4); assay type: physicochemical; details: n-octanol / PBS pH 7.4, shake flask
Excerpt: The kinetic profile of [^68Ga]Ga-DOTAGA-Glu-(FAPi)2 is explained considering its low lipophilicity, estimated by measuring the logD7.4 value using the shake flask method with n-octanol and phosphate-buffered saline (pH 7.4). The logD7.4 of −2.5 ± 0.05 indicates good hydrophilicity, leading to renal excretion over biliary excretion. […] Moreover, the compound is more hydrophilic than the first-generation dimer [^68Ga]Ga-DOTAGA.(SA.FAPi)2 (−2.0 ± 0.1) ([25]), resulting in lower background uptake and higher tumor-to-background image contrast.

[3] = Stability of radiochemical purity (RCP) post-formulation by radio-HPLC; assay type: physicochemical; details: formulated in phosphate buffer (0.1 M, pH 7) with ethanol
Protocol: Gallium-68 chloride was obtained by eluting the ^68Ge/^68Ga generator (Galliapharm, Eckert & Ziegler, Berlin, Germany) with 0.1 M HCl. Ammonium acetate buffer (0.1 M, pH 5.5), and a DOTAGA-Glu(FAPi)2 stock solution (2 mg/mL) for labeling was prepared using water for ultratrace analysis (Merck, Darmstadt, Germany). [^68Ga]GaCl3 solution in 0.1 M HCl (500 µL, ca. 200 MBq ^68Ga) was mixed with ammonium acetate buffer (80 µL) and DOTAGA-Glu-(FAPi)2 stock solution (4 µL). The resulting mixture was placed on an agitating mixer and shaken at 600 rpm for 5 min at 60 °C. Afterward, the reaction mixture was diluted with 5 mL water and passed through a Strata-X 33 µm polymeric reversed-phase cartridge (Phenomenex, Torrance, CA, USA). The cartridge was rinsed with more water (0.3 mL) and eluted with absolute ethanol (0.5 mL). Ethanol was evaporated under nitrogen flow and gentle heating to 40 °C. The residue was resolubilized in an aliquot of fresh ethanol (20 µL) and further diluted with phosphate buffer (0.1 M, pH 7) to a total volume of 2 mL.
Radiochemical conversion (RCC) for the ^68Ga-labeling process and radiochemical purity (RCP) of the formulated [^68Ga]Ga-DOTAGA-Glu(FAPi)2 were assessed by radio-HPLC.

[4] = 5 min post-injection, Mean±SEM, n = 4 mice
[5] = 5 min post-injection, individual mice M1-M4
[6] = 15 min post-injection, Mean±SEM, n = 4 mice
[7] = 15 min post-injection, individual mice M1-M4
[8] = 25 min post-injection, Mean±SEM, n = 4 mice
[9] = 25 min post-injection, individual mice M1-M4
[10] = 35 min post-injection, Mean±SEM, n = 4 mice
[11] = 35 min post-injection, individual mice M1-M4
[12] = 45 min post-injection, Mean±SEM, n = 4 mice, listed as [68Ga]Ga-DOTAGA-Glu-(FAPi)2
[13] = 45 min post-injection, Mean±SEM, n = 4 mice, listed as [^68Ga]Ga-DOTAGA-Glu-(FAPi)2
[14] = 45 min post-injection, individual mice M1-M4

SMILES: N#C[C@@H]1CC(F)(F)CN1C(=O)CNC(=O)c1ccnc2ccc(OCCCCNC(=O)CC[C@H](NC(=O)CCC(C(=O)O)N3CCN(CC(=O)[O-])CCN(CC(=O)[O-])CCN(CC(=O)[O-])CC3)C(=O)NCCCCOc3ccc4nccc(C(=O)NCC(=O)N5CC(F)(F)C[C@H]5C#N)c4c3)cc12.[68Ga+3] (stereo partly drawn) [[^68Ga]Ga-DOTAGA-Glu(FAPi)2]
- Organ distribution, bladder [1, 4]: 3.96±0.42 %ID/g
- Organ distribution, kidney [1, 4]: 6.68±0.48 %ID/g
- Organ distribution, liver [1, 4]: 5.83±0.58 %ID/g
- Organ distribution, tumor [1, 4]: 2.55±0.38 %ID/g
- Tumor-to-blood ratio (TBR) [1, 4]: 0.46±0.05
- Tumor-to-kidney ratio (TKR) [1, 4]: 0.38±0.03
- Tumor-to-liver ratio (TLR) [1, 4]: 0.43±0.03
- Tumor-to-muscle ratio (TMR) [1, 4]: 3.66±0.13
- Organ distribution, bladder [1, 5]: 4.80 %ID/g and 4.51 %ID/g and 3.00 %ID/g and 3.51 %ID/g
- Organ distribution, blood [1, 5]: 5.98 %ID/g
- Organ distribution, kidney [1, 5]: 7.50 %ID/g and 7.11 %ID/g and 6.77 %ID/g and 5.32 %ID/g
- Organ distribution, liver [1, 5]: 6.93 %ID/g and 6.06 %ID/g and 6.15 %ID/g and 4.19 %ID/g
- Organ distribution, tumor [1, 5]: 3.52 %ID/g and 2.54 %ID/g and 1.66 %ID/g
- Tumor-to-blood ratio (TBR) [1, 5]: 0.59 and 0.42 and 0.37 and 0.44
- Tumor-to-kidney ratio (TKR) [1, 5]: 0.47 and 0.35 and 0.38 and 0.31
- Tumor-to-liver ratio (TLR) [1, 5]: 0.51 and 0.41 (2×) and 0.40
- Tumor-to-muscle ratio (TMR) [1, 5]: 3.52 and 3.35 and 3.91 and 3.86
- Organ distribution, bladder [1, 6]: 25±2.12 %ID/g
- Organ distribution, kidney [1, 6]: 7.08±0.56 %ID/g
- Organ distribution, liver [1, 6]: 4.02±0.15 %ID/g
- Organ distribution, tumor [1, 6]: 4.28±0.37 %ID/g
- Tumor-to-blood ratio (TBR) [1, 6]: 0.92±0.10
- Tumor-to-kidney ratio (TKR) [1, 6]: 0.61±0.05
- Tumor-to-liver ratio (TLR) [1, 6]: 1.06±0.07
- Tumor-to-muscle ratio (TMR) [1, 6]: 3.68±0.32
- Organ distribution, bladder [1, 7]: 20.10 %ID/g and 25.42 %ID/g and 30.39 %ID/g and 24.10 %ID/g
- Organ distribution, blood [1, 7]: 4.04 %ID/g
- Organ distribution, kidney [1, 7]: 6.09 %ID/g and 6.56 %ID/g and 8.67 %ID/g and 7.01 %ID/g
- Organ distribution, liver [1, 7]: 3.79 %ID/g and 3.93 %ID/g and 4.45 %ID/g and 3.92 %ID/g
- Organ distribution, tumor [1, 7]: 5.16 %ID/g and 3.44 %ID/g and 4.56 %ID/g
- Tumor-to-blood ratio (TBR) [1, 7]: 1.04 and 0.69 and 1.13 and 0.84
- Tumor-to-kidney ratio (TKR) [1, 7]: 0.75 and 0.60 and 0.59 and 0.49
- Tumor-to-liver ratio (TLR) [1, 7]: 1.20 and 1.00 and 1.16 and 0.88
- Tumor-to-muscle ratio (TMR) [1, 7]: 3.40 and 3.28 and 4.65 and 3.37
- Organ distribution, bladder [1, 8]: 42.54±5.06 %ID/g
- Organ distribution, kidney [1, 8]: 4.02±0.60 %ID/g
- Organ distribution, liver [1, 8]: 3.21±0.11 %ID/g
- Organ distribution, tumor [1, 8]: 4.49±0.45 %ID/g
- Tumor-to-blood ratio (TBR) [1, 8]: 1.12±0.15
- Tumor-to-kidney ratio (TKR) [1, 8]: 1.14±0.07
- Tumor-to-liver ratio (TLR) [1, 8]: 1.40±0.12
- Tumor-to-muscle ratio (TMR) [1, 8]: 3.71±0.40
- Organ distribution, bladder [1, 9]: 31.21 %ID/g and 41.63 %ID/g and 55.86 %ID/g and 41.46 %ID/g
- Organ distribution, blood [1, 9]: 3.66 %ID/g
- Organ distribution, kidney [1, 9]: 3.47 %ID/g and 3.78 %ID/g and 5.77 %ID/g and 3.07 %ID/g
- Organ distribution, liver [1, 9]: 2.94 %ID/g and 3.20 %ID/g and 3.49 %ID/g and 3.19 %ID/g
- Organ distribution, tumor [1, 9]: 5.65 %ID/g and 3.51 %ID/g and 4.60 %ID/g
- Tumor-to-blood ratio (TBR) [1, 9]: 1.46 and 0.76 and 1.26 and 1.01
- Tumor-to-kidney ratio (TKR) [1, 9]: 1.33 and 1.11 and 0.98 and 1.14
- Tumor-to-liver ratio (TLR) [1, 9]: 1.56 and 1.31 and 1.62 and 1.10
- Tumor-to-muscle ratio (TMR) [1, 9]: 3.57 and 3.36 and 4.87 and 3.03
- Organ distribution, bladder [1, 10]: 50.28±7.13 %ID/g
- Organ distribution, kidney [1, 10]: 2.78±0.44 %ID/g
- Organ distribution, liver [1, 10]: 2.88±0.08 %ID/g
- Organ distribution, tumor [1, 10]: 4.62±0.51 %ID/g
- Tumor-to-blood ratio (TBR) [1, 10]: 1.29±0.21
- Tumor-to-kidney ratio (TKR) [1, 10]: 1.70±0.10
- Tumor-to-liver ratio (TLR) [1, 10]: 1.60±0.16
- Tumor-to-muscle ratio (TMR) [1, 10]: 3.74±0.37
- Organ distribution, bladder [1, 11]: 35.81 %ID/g and 47.82 %ID/g and 69.95 %ID/g and 47.53 %ID/g
- Organ distribution, blood [1, 11]: 3.44 %ID/g
- Organ distribution, kidney [1, 11]: 2.39 %ID/g and 2.64 %ID/g and 4.04 %ID/g and 2.06 %ID/g
- Organ distribution, liver [1, 11]: 2.67 %ID/g and 2.93 %ID/g and 3.06 %ID/g and 2.85 %ID/g
- Organ distribution, tumor [1, 11]: 5.95 %ID/g and 3.52 %ID/g and 4.68 %ID/g
- Tumor-to-blood ratio (TBR) [1, 11]: 1.85 and 0.85 and 1.36 and 1.11
- Tumor-to-kidney ratio (TKR) [1, 11]: 1.96 and 1.64 and 1.47 and 1.71
- Tumor-to-liver ratio (TLR) [1, 11]: 1.75 and 1.48 and 1.94 and 1.24
- Tumor-to-muscle ratio (TMR) [1, 11]: 3.66 and 3.17 and 4.80 and 3.32
- Organ distribution, bladder ([1]; 45 min post-injection, Mean±SEM, n = 4 mice): 53.81±7.59 %ID/g
- Organ distribution, kidney [1, 12]: 2.16±0.21 %ID/g
- Organ distribution, liver [1, 12]: 2.73±0.09 %ID/g
- Organ distribution, tumor [1, 12]: 4.65±0.52 %ID/g
- Tumor-to-blood ratio (TBR) [1, 12]: 1.38±0.25
- Tumor-to-kidney ratio (TKR) [1, 12]: 2.15±0.08
- Tumor-to-liver ratio (TLR) [1, 12]: 1.71±0.17
- Tumor-to-muscle ratio (TMR) [1, 12]: 3.88±0.41
- Tumor-to-blood ratio (TBR) [1, 13]: 1.4 ± 0.3
- Tumor-to-liver ratio (TLR) [1, 13]: 1.7 ± 0.2
- Tumor-to-muscle ratio (TMR) [1, 13]: 3.9 ± 0.4
- Organ distribution, bladder [1, 14]: 39.77 %ID/g and 49.32 %ID/g and 75.38 %ID/g and 50.79 %ID/g
- Organ distribution, kidney [1, 14]: 1.99 %ID/g and 2.17 %ID/g and 2.73 %ID/g and 1.74 %ID/g
- Organ distribution, liver [1, 14]: 2.47 %ID/g and 2.78 %ID/g and 2.91 %ID/g and 2.75 %ID/g
- Organ distribution, tumor [1, 14]: 4.40 %ID/g and 6.01 %ID/g and 3.52 %ID/g and 4.68 %ID/g
- Tumor-to-blood ratio (TBR) [1, 14]: 1.19 and 2.06 and 0.88 and 1.38
- Tumor-to-kidney ratio (TKR) [1, 14]: 2.35 and 2.03 and 2.20 and 2.02
- Tumor-to-liver ratio (TLR) [1, 14]: 1.89 and 1.58 and 2.07 and 1.28
- Tumor-to-muscle ratio (TMR) [1, 14]: 3.52 and 3.41 and 5.09 and 3.49
- clearance route ([1]; PET/CT, U87MG tumor-bearing mice): cleared mainly by the kidneys
- logD7.4 [2]: −2.5 ± 0.05
- RCP stable post-formulation [3]: at least 1 h
